# Laboratory results reported in PMC2248166, “Quantitative peptide binding motifs for 19 human and mouse MHC class I molecules derived using positional scanning combinatorial peptide libraries” (Immunome Research, 2008).
# Target: HLA B*5801 (Homo sapiens, UniProt P01889, A329T/C349S/D201E/D98Y/E176V/E187L/E204Q/E69T/G107R/I218V/I90N/K202T/L105A/L119I/N104I/N87E/Q89R/Q94S/R106L/R155S/R180L/R86G/S101N/S121R/S35A/S48A/T118I/V127L/V306I/V36M/Y140S/Y91M)
# Experiment: not given
# Type: binding
row,Sequence,Normalized average relative binding affinity(ARB)
1,XXXXXXEXX [3064.0124],0.15
2,XXXXXXFXX [3064.0125],0.018
3,XXXXXXGXX [3064.0126],0.031
4,XXXXXXHXX [3064.0127],0.18
5,XXXXXXIXX [3064.0128],0.65
6,XXXXXXKXX [3064.0129],0.037

# Target: HLA B*1503 (Homo sapiens, UniProt P01889, A329T/A93T/A95T/C349S/D201E/D98Y/E187L/E204Q/K202T/N87E/Q94N/R155S/R180L/S121R/S35A/V306I/V36M/Y140S/Y91S)
# Experiment: biochemical
# Type: binding
row,Sequence,Normalized average relative binding affinity(ARB)
1,XXXXXXEXX [3064.0124],0.043
2,XXXXXXFXX [3064.0125],0.077
3,XXXXXXGXX [3064.0126],0.12
4,XXXXXXHXX [3064.0127],0.18
5,XXXXXXIXX [3064.0128],0.29
6,XXXXXXKXX [3064.0129],0.091

# Target: H-2 D^b (Mus musculus, UniProt P01899)
# Experiment: not given
# Type: binding
# Sequence of H-2 D^b (P01887 21-119): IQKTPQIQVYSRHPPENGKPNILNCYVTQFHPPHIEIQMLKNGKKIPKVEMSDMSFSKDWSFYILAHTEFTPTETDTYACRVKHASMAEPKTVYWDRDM
# Sequence of H-2 D^b (P01899 25-362): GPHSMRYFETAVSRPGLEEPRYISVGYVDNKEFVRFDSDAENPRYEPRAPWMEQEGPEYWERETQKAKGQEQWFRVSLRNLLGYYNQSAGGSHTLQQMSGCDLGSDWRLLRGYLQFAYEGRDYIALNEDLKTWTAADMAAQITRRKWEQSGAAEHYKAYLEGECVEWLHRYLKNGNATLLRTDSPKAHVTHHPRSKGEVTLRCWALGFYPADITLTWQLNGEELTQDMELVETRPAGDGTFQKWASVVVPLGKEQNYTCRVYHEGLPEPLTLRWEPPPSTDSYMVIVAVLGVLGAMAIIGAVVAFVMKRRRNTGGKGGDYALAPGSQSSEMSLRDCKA
row,Sequence,Normalized average relative binding affinity(ARB)
1,XXXXXXEXX [3064.0124],0.96
2,XXXXXXFXX [3064.0125],0.72
3,XXXXXXGXX [3064.0126],0.45
4,XXXXXXHXX [3064.0127],0.062
5,XXXXXXIXX [3064.0128],0.33
6,XXXXXXKXX [3064.0129],0.062

# Target: HLA B*0801 (Homo sapiens, UniProt P01889, A93T/A95T/D138N/E176V/E187T/K202T/Q94N/R180D/S35A/V36M/Y33D/Y91F)
# Experiment: biochemical
# Type: binding
row,Sequence,Normalized average relative binding affinity(ARB)
1,XXXXXXEXX [3064.0124],0.32
2,XXXXXXFXX [3064.0125],0.40
3,XXXXXXGXX [3064.0126],0.17
4,XXXXXXHXX [3064.0127],1.0
5,XXXXXXIXX [3064.0128],0.030
6,XXXXXXKXX [3064.0129],0.26

# Target: H-2 K^k (Mus musculus, UniProt P04223)
# Experiment: not given
# Type: binding
# Sequence of H-2 K^k (P01887 21-119): as the sequence (P01887 21-119) above
# Sequence of H-2 K^k (P04223 22-369): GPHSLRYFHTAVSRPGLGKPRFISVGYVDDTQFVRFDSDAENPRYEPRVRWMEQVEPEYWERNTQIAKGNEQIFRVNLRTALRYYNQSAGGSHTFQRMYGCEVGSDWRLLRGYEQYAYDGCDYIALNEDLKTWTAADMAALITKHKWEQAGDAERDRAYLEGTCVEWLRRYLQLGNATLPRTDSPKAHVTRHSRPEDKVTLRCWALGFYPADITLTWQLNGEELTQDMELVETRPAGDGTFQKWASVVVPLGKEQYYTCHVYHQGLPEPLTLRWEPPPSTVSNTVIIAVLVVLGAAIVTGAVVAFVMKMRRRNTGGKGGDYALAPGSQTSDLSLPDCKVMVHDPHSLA
row,Sequence,Normalized average relative binding affinity(ARB)
1,XXXXXXEXX [3064.0124],0.13
2,XXXXXXFXX [3064.0125],1.0
3,XXXXXXGXX [3064.0126],0.34
4,XXXXXXHXX [3064.0127],0.26
5,XXXXXXIXX [3064.0128],0.037
6,XXXXXXKXX [3064.0129],0.15

# Target: H-2 K^d (Mus musculus, UniProt P01902)
# Experiment: not given
# Type: binding
# Sequence of H-2 K^d (P01887 21-119): as the sequence (P01887 21-119) above
# Sequence of H-2 K^d (P01902 22-368): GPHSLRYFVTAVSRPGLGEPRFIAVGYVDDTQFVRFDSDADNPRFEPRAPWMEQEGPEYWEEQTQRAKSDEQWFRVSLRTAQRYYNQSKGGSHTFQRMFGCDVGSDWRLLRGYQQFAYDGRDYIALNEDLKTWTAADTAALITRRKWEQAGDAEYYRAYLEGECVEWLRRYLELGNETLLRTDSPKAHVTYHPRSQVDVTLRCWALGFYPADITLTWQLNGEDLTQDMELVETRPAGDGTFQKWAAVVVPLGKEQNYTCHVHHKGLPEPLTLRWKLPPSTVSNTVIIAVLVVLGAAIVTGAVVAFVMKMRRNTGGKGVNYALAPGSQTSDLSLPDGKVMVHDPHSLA
row,Sequence,Normalized average relative binding affinity(ARB)
1,XXXXXXEXX [3064.0124],0.14
2,XXXXXXFXX [3064.0125],0.088
3,XXXXXXGXX [3064.0126],0.28
4,XXXXXXHXX [3064.0127],0.33
5,XXXXXXIXX [3064.0128],0.045
6,XXXXXXKXX [3064.0129],0.023

# Target: HLA B*3501 (Homo sapiens, UniProt P01889, A329T/A93T/A95T/C349S/D201E/D98Y/E176V/E187L/E204Q/E69T/I218V/K202T/L119I/Q94N/R155S/R180L/S121R/S35A/S48A/T118I/V127L/V306I/V36M/Y140S/Y91F)
# Experiment: not given
# Type: binding
row,Sequence,Normalized average relative binding affinity(ARB)
1,XXXXXXEXX [3064.0124],0.36
2,XXXXXXFXX [3064.0125],0.32
3,XXXXXXGXX [3064.0126],0.12
4,XXXXXXHXX [3064.0127],0.15
5,XXXXXXIXX [3064.0128],0.48
6,XXXXXXKXX [3064.0129],0.073

# Target: HLA B*5101 (Homo sapiens, UniProt P01889, A329T/A93T/A95T/C349S/D138N/D201E/D98Y/E187L/E204Q/E69T/G107R/I218V/K202T/L105A/L119W/N104I/Q94N/R106L/R155S/R180L/S101N/S121T/S35A/S48A/V306I/V36M/Y195H/Y91F)
# Experiment: not given
# Type: binding
row,Sequence,Normalized average relative binding affinity(ARB)
1,XXXXXXEXX [3064.0124],0.37
2,XXXXXXFXX [3064.0125],0.43
3,XXXXXXGXX [3064.0126],0.33
4,XXXXXXHXX [3064.0127],0.27
5,XXXXXXIXX [3064.0128],0.59
6,XXXXXXKXX [3064.0129],0.12

# Target: HLA B*5301 (Homo sapiens, UniProt P01889, A329T/A93T/A95T/C349S/D201E/D98Y/E176V/E187L/E204Q/E69T/G107R/I218V/K202T/L105A/L119I/N104I/Q94N/R106L/R155S/R180L/S101N/S121R/S35A/S48A/T118I/V127L/V306I/V36M/Y140S/Y91F)
# Experiment: not given
# Type: binding
row,Sequence,Normalized average relative binding affinity(ARB)
1,XXXXXXEXX [3064.0124],0.29
2,XXXXXXFXX [3064.0125],0.10
3,XXXXXXGXX [3064.0126],0.058
4,XXXXXXHXX [3064.0127],0.070
5,XXXXXXIXX [3064.0128],0.10
6,XXXXXXKXX [3064.0129],0.022

# Target: HLA B*5802 (Homo sapiens, UniProt P01889, A329T/C349S/D201E/D98Y/E176V/E187L/E204Q/E69T/G107R/I218V/I90N/K202T/L105A/N104I/N87E/Q89R/Q94S/R106L/R155S/R180L/R86G/S101N/S121W/S35A/S48A/V127L/V306I/V36M/Y140S/Y91M)
# Experiment: not given
# Type: binding
row,Sequence,Normalized average relative binding affinity(ARB)
1,XXXXXXEXX [3064.0124],0.092
2,XXXXXXFXX [3064.0125],0.084
3,XXXXXXGXX [3064.0126],0.024
4,XXXXXXHXX [3064.0127],0.089
5,XXXXXXIXX [3064.0128],0.058
6,XXXXXXKXX [3064.0129],0.031

# Target: HLA B*5401 (Homo sapiens, UniProt P01889, A329T/C349S/D138N/D201E/E176V/E187T/E204Q/E69G/I76V/K202T/L119W/R155S/R180L/S121T/S35A/S48A/V127L/V306I/V36M/Y140L)
# Experiment: not given
# Type: binding
row,Sequence,Normalized average relative binding affinity(ARB)
1,XXXXXXEXX [3064.0124],0.26
2,XXXXXXFXX [3064.0125],0.17
3,XXXXXXGXX [3064.0126],0.073
4,XXXXXXHXX [3064.0127],0.27
5,XXXXXXIXX [3064.0128],0.15
6,XXXXXXKXX [3064.0129],0.089

# Target: HLA B*1501 (Homo sapiens, UniProt P01889, A329T/A93T/A95T/C349S/D201E/D98Y/E187L/E204Q/E69M/E70A/K202T/N87E/Q94N/R155S/R180W/S121R/S35A/S48A/V306I/V36M/Y140S/Y91S)
# Experiment: biochemical
# Type: binding
row,Sequence,Normalized average relative binding affinity(ARB)
1,XXXXXXEXX [3064.0124],0.49
2,XXXXXXFXX [3064.0125],0.34
3,XXXXXXGXX [3064.0126],0.52
4,XXXXXXHXX [3064.0127],0.33
5,XXXXXXIXX [3064.0128],0.40
6,XXXXXXKXX [3064.0129],0.15

# Target: HLA A*6802 (Homo sapiens, UniProt P04439, A269V/D140Y/D185E/E176V/E277Q/E87N/F33Y/G231S/I121R/I166T/I218V/L180W/L300P/L318F/N151K/P208A/P217A/Q86R/R138H/R169H/S129P/T345S/V36M)
# Experiment: not given
# Type: binding
row,Sequence,Normalized average relative binding affinity(ARB)
1,XXXXXXEXX [3064.0124],0.42
2,XXXXXXFXX [3064.0125],0.46
3,XXXXXXGXX [3064.0126],0.071
4,XXXXXXHXX [3064.0127],0.49
5,XXXXXXIXX [3064.0128],0.55
6,XXXXXXKXX [3064.0129],0.086

# Target: HLA A*3001 (Homo sapiens, UniProt P04439, D140H/D185E/E176W/F33S/G80R/H175R/K168Q/R138E/R41S)
# Experiment: biochemical
# Type: binding
row,Sequence,Normalized average relative binding affinity(ARB)
1,XXXXXXEXX [3064.0124],0.050
2,XXXXXXFXX [3064.0125],0.18
3,XXXXXXGXX [3064.0126],0.044
4,XXXXXXHXX [3064.0127],0.082
5,XXXXXXIXX [3064.0128],0.16
6,XXXXXXKXX [3064.0129],0.062

# Target: H-2 D^d (Mus musculus, UniProt P01900)
# Experiment: not given
# Type: binding
# Sequence of H-2 D^d (P01900 whole entry, looked up): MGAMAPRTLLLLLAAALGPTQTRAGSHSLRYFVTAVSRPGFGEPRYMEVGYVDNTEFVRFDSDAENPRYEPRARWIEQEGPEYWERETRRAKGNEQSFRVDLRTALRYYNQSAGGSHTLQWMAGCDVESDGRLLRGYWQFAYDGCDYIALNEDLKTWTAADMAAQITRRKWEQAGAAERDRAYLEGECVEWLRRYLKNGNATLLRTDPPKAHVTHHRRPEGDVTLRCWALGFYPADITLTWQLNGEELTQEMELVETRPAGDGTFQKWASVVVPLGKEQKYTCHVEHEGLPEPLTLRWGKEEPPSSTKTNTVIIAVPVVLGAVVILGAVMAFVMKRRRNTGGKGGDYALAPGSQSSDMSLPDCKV
row,Sequence,Normalized average relative binding affinity(ARB)
1,XXXXXXEXX [3064.0124],0.060
2,XXXXXXFXX [3064.0125],1.0
3,XXXXXXGXX [3064.0126],0.031
4,XXXXXXHXX [3064.0127],0.075
5,XXXXXXIXX [3064.0128],0.048
6,XXXXXXKXX [3064.0129],0.0067

# Target: HLA A*3201 (Homo sapiens, UniProt P04439, A270S/D101S/D185E/E176V/E277Q/F133L/G103R/G107R/G231S/H175R/I121M/I218V/I322F/K168Q/L105A/L300P/L318F/M331R/P208A/P217A/Q94H/R106L/R138Q/S129P/T104I/T323A/T345S/V100E/V321M/V358M)
# Experiment: biochemical
# Type: binding
row,Sequence,Normalized average relative binding affinity(ARB)
1,XXXXXXEXX [3064.0124],0.092
2,XXXXXXFXX [3064.0125],0.44
3,XXXXXXGXX [3064.0126],0.051
4,XXXXXXHXX [3064.0127],0.33
5,XXXXXXIXX [3064.0128],0.094
6,XXXXXXKXX [3064.0129],0.030
